{"source": "patent US10556860B2", "about": "“hTERT modulators and methods of use” (Arizona Board of Regents on Behalf of the University of …, priority 2015, dated 2020)", "key": {"MCF7 cells [1]": {"test_system": "MCF7 cells", "experiment": "Cell cycle analysis by PI staining", "assay_type": "cell-based, human", "conditions": "48 h treatment", "procedure": "Cell cycle analysis by PI staining. MCF7 cells were treated with GTC365 for 48 h. Cells were trypsinized and washed with cold D-PBS. Cell pellets were subjected to 70% EtOH fixation at −20° C. overnight. Cells were incubated with RNase A and PI for 3 h at 37° C. and then kept in ice before FACS analysis (FACScanto II, BD Biosciences, San Jose, Calif.).\n(§1) Since knockdown of hTERT arrests the cell cycle in the G0/G1 phase, the effects of GTC365 on the cell cycle were evaluated. GTC365 increased the population of the G0/G1 (from 57% to 71%) and G2/M phases (from 10% to 19%), whereas the S-phase was decreased (from 33% to 10%) in a dose-dependent manner with 48 h treatment. […] It is known that various anticancer drugs induce SLP in different cancer cells, leading to mitotic catastrophe as well as apoptotic cell death. Doxorubicin, one of the representative anticancer drugs, induced apoptosis and mitotic catastrophe accompanied by multiple nuclei with SLP. GTC365, like doxorubicin, appears to arrest cell proliferation and induce cell death, apoptosis, or mitotic catastrophe through downregulation of hTERT."}, "[2]": {"test_system": "melanoma cell lines with characterized TERT promoter status (19 cell lines)", "experiment": "6-point 72 h MTS proliferation assay, WT versus promoter mutant melanoma cell lines", "assay_type": "cell-based, human", "procedure": "(§2) FIGS. 13A-13C are a set of graphs showingselective reduction in viability (A) and hTERT expression (B) in melanoma cells carrying hTERT core promotor mutations. NHM-002 (normal human melanocytes) and a G124A mutant cell line were treated with vehicle, 1.25, 2.5, and 5 μM GTC365 for 72 h. Viability was reduced in hTERT mutant melanoma cells by 50% (left). […] (C) Differential response to GTC365 in WT and promoter mutant cell lines.\n(§3) Next, to assess the selectivity of GTC365 for hTERT-dependent cancer cells relative to normal precursorcells, we compared the effects of a range of […] on viability at 72 h in normal humanmelanocytes (NHM-002) relative to those of UACC-903, aG124A mutant (FIG. 13A). […] To confirm that the reduction in cell viability was aresult of hTERT downregulation, we performed reverse transcription and qPCR to measure the mRNA level of hTERT expression in cells treated with DMSO or 5 μMGTC365. hTERT expression was reduced by 41% in themelanoma cell line after 72 h but was undetectable in normalmelanocytes, even in the absence of GTC365 (FIG. 13B). Finally, tobroadly assess the selectivity of GTC365 for hTERT promotermutant versus WT cells, we conducted a 6-point 72 h MTSproliferation assay to determine EC50s in 14 additional melanoma cell lines with characterized TERT promoter status([…]) (FIG. 13C). […]"}, "G146A 5-12 G-quadruplex": {"test_system": "G146A 5-12 G-quadruplex", "experiment": "CD kinetics, temperature-jump, G146A", "assay_type": "biochemical, human", "conditions": "2 equiv", "procedure": "(§4) FIGS. 10A and 10B are a set of graphs showing (A) comparison of kinetics of initial folding rate of the WT 5-12 G-quadruplex with GTC365 and BRACO-19 by the temperature-jump method. (B) Enhanced initial folding rate of the 5-12 G-quadruplexes carrying different hTERT mutants by GTC365. The time-course CD signal of preheated oligo with compound or DMSO in a buffer containing 10 mM Tris-HCl (pH 7.5) and 5 mM KCl was monitored at 262 nm and 25° C.\n(§5) For the kinetics analysis using the temperature-jump method, theoligo in a buffer containing 10 mM Tris-HCl (pH 7.5) was heated forl min at 95° C., and then a mixture of KCl and compound was addedand incubated for 1 min. Meanwhile, the CD cuvette was also heatedat 95° C. As soon as the sample in the CD cuvette at the hightemperature was placed in the CD chamber, a time-dependent CDsignal at 262 nm was recorded immediately. The initial folding ratewas determined by one-phase association curve fitting (eq 1) of thekinetics curve using GraphPad Prism 5: Y=Y0+(Plateau−Y0)*(1−e^−kx) (1) where Y is the CD signal at any time point x, Y0 is the Y value whentime (x) is zero, plateau is the Y value at infinite time, and k is the rateconstant.\n(§6) To evaluate the comparative effects of GTC365 relative to BRACO-19 on the cooperative folding process, we carried out two different experiments. […]"}, "[3]": {"test_system": "G138/139A 5-12 G-quadruplex", "experiment": "CD kinetics, temperature-jump, G138/139A", "assay_type": "biochemical, human", "conditions": "2 equiv", "procedure": "as §4, §5, §6"}, "[4]": {"test_system": "hTERT mRNA in melanoma cell line (UACC-903)", "experiment": "qPCR of hTERT expression in G124A mutant melanoma cell line", "assay_type": "cell-based, human", "conditions": "5 μM, 72 h", "procedure": "as §2, §3"}, "MCF7 cells [5]": {"test_system": "MCF7 cells", "experiment": "Counting of live cells treated with GTC365", "assay_type": "cell-based, human", "conditions": "low dose, nine days", "procedure": "Counting of live cells treated with GTC365. MCF7 cells were treated with DMSO or 0.5 μM of GTC365. Cells were trypsinized and then subjected to trypan blue exclusion staining for counting of live cells using microscopy every three days. Afterward, 70% of cells were recultured with fresh media and DMSO or GTC365. Relative cell numbers compared to the DMSO were obtained.\nas §1"}, "[6]": {"test_system": "normal human melanocytes (NHM-002)", "experiment": "Viability of normal human melanocytes", "assay_type": "cell-based", "conditions": "1.25, 2.5 and 5 μM, 72 h", "procedure": "as §2, §3"}, "[7]": {"test_system": "UACC-903, a G124A mutant melanoma cell line", "experiment": "Viability of G124A mutant melanoma cells", "assay_type": "cell-based, human", "conditions": "72 h", "procedure": "as §2, §3"}}, "note": "Entries after “also recorded” stand apart in the source; their conditions may differ.", "data": [{"compound": "N=C(N)NCCCS(=O)(=O)Nc1ccc(Nc2c3ccccc3nc3cc([N+](=O)[O-])ccc23)cc1", "note": "[GTC365]", "values": [{"measurement": "population in G2/M phase", "setting": "MCF7 cells [1]; from 10% without compound", "value": 19, "unit": "%"}, {"measurement": "population in S-phase", "setting": "MCF7 cells [1]; from 33% without compound", "value": 10, "unit": "%"}, {"measurement": "population in G0/G1 phase", "setting": "MCF7 cells [1]; from 57% without compound", "value": 71, "unit": "%"}, {"measurement": "response (EC50) in WT versus mutant melanoma cell lines", "setting": "[2]", "value": "significant differential response"}, {"measurement": "increase of initial folding rate", "setting": "G146A 5-12 G-quadruplex", "value": 0.054, "unit": "s⁻¹"}, {"measurement": "effect on initial folding rate", "setting": "[3]", "value": "insignificant"}, {"measurement": "reduction of hTERT expression (mRNA)", "setting": "[4]", "value": 41, "unit": "%"}, {"measurement": "cell death of cells showing SLP", "setting": "MCF7 cells [5]", "value": "underwent cell death"}, {"measurement": "viability change", "setting": "[6]", "value": "minimal viability change; also recorded: minimal reduction"}, {"measurement": "viability", "setting": "[7]; 5 μM", "value": "below 50%"}, {"measurement": "reduction of viability", "setting": "[7]; hTERT mutant melanoma cells, up to 5 μM", "value": 50, "unit": "%"}]}]}
